This note sets out measurements from ChEMBL document CHEMBL1126761, “A novel constrained reduced-amide inhibitor of HIV-1 protease derived from the sequential incorporation of gamma-turn mimetics into a model substrate” (J Med Chem, 1993).

*1 amine or outer side, *2 acyl side, *3 side chain or, on linkers, in order; H or OH if unused. Where a SMILES comes first, the peptide text is derived from it. [ ]: non-standard residue; d: D form. X1 = CC(N[*:1])C1=CCC(=O)N([C@@H](Cc2ccccc2)C(=O)[*:2])CC1; X2 = O=C([C@@H]1CCCN1C[C@H](Cc1ccccc1)N[*:1])[*:2]

This assay addresses Human immunodeficiency virus type 1 protease (Human immunodeficiency virus 1, UniProt Q72874). As to the kind of experiment: Inhibition constant was determined against HIV-1 protease.
`CC(C)[C@H](NC(=O)[C@@H](NC(=O)[C@@H]1CCCN1C[C@H](Cc1ccccc1)NC(=O)[C@H](C)NC(=O)[C@H](C)NC(=O)[C@@H](N)CO)C(C)C)C(N)=O` (H-SAA[X2]VV-NH2): the affinity, expressed as Ki, was 18.8 µM. As for `CC(NC(=O)[C@@H](N)CO)C1=CCC(=O)N([C@@H](Cc2ccccc2)C(=O)N2CCC[C@H]2C(=O)N[C@H](C(=O)N[C@H](C(N)=O)C(C)C)C(C)C)CC1` (some centres not stated) (H-S[X1]PVV-NH2), the figure is above 2000 µM; as for `COC(=O)[C@@H](NC(=O)[C@@H](NC(=O)[C@H](C)N1CCC([C@H](C)NC(=O)[C@H](C)N)=CC(Cc2ccccc2)C1)C(C)C)C(C)C` (stereo in doubt; form 1), 0.43 µM; as for `COC(=O)[C@@H](NC(=O)[C@@H](NC(=O)[C@H](C)N1CCC([C@H](C)NC(=O)[C@H](C)N)=CC(Cc2ccccc2)C1=O)C(C)C)C(C)C` (stereo in doubt; form 1), 372 µM. In the case of `COC(=O)[C@@H](NC(=O)[C@H](C(C)C)N1CCC(C(Cc2ccccc2)NC(=O)[C@H](C)NC(=O)[C@H](C)NC(=O)[C@@H](N)CO)=CCC1=O)C(C)C` (stereo in doubt; form 1), the inhibition constant Ki (usually a measure of affinity in units of concentration, obtained from inhibition or displacement) was above 2000 µM.

`COC(=O)[C@@H](NC(=O)[C@@H](NC(=O)[C@H](C)N1CCC([C@H](C)NC(=O)[C@H](C)N)=CC(Cc2ccccc2)C1=O)C(C)C)C(C)C` (stereo in doubt; form 2) registered a Ki of 147 µM. `COC(=O)[C@@H](NC(=O)[C@H](C(C)C)N1CCC(C(Cc2ccccc2)NC(=O)[C@H](C)NC(=O)[C@H](C)NC(=O)[C@@H](N)CO)=CCC1=O)C(C)C` (stereo in doubt; form 2): the affinity corresponds to a Ki of 1700 µM.
